Measurements: ChEMBL document CHEMBL2163213, “Synthesis and bioevaluation of novel 3,4,5-trimethoxybenzylbenzimidazole derivatives that inhibit Helicobacter pylori-induced pathogenesis in human gastric epithelial cells” (Eur J Med Chem, 2012)
Values after ≈ are worked out from the molar mass of the structure shown. Active and inactive are the calls of the source. No cut-off for these calls is given here.

What was measured:
Helicobacter pylori [1] = assay: Antimicrobial activity against metronidazole and clarithromycin-resistant Helicobacter pylori v1254 at pH 5 by microdilution method; format: functional
AGS [2] = assay: Inhibition of NFkappaB activation expressed in human AGS cells infected with Helicobacter pylori at 20 ug/ml relative to control; format: cell-based
Helicobacter pylori [3] = assay: Antimicrobial activity against metronidazole and clarithromycin-resistant Helicobacter pylori v633 at pH 7 by microdilution method; format: functional
Helicobacter pylori [4] = assay: Inhibition of Helicobacter pylori invasion to human AGS cells at 5 ug/ml after 6 hrs by gentamicin assay relative to control; format: functional
Helicobacter pylori [5] = assay: Antimicrobial activity against Helicobacter pylori infected in human AGS cells assessed as inhibition of CagA gene translocation at 20 ug/ml after 6 hrs by immunoblot analysis; format: functional
AGS [6] = assay: Inhibition of NFkappaB activation expressed in human AGS cells infected with Helicobacter pylori at 10 ug/ml relative to control; format: cell-based
Helicobacter pylori [7] = assay: Inhibition of Helicobacter pylori invasion to human AGS cells at 10 ug/ml after 6 hrs by gentamicin assay relative to control; format: functional
Helicobacter pylori [8] = assay: Antimicrobial activity against Helicobacter pylori infected in human AGS cells assessed as reduction of tyrosine phosphorylated CagA level translocation after 6 hrs by immunoblot analysis; format: functional, organism-based
AGS [9] = assay: Inhibition of Helicobacter pylori 26695 ATCC 700392 cytotoxin A-induced vacuolation in human AGS cells after 24 hrs by neutral red uptake assay; format: functional, cell-based
AGS [10] = assay: Cytotoxicity against human AGS cells assessed as cell viability by MTT assay; format: cell-based
[11] = Antimicrobial activity against Helicobacter pylori 26695 ATCC 700392 at 100 ug/ml by disk agar diffusion method; format: functional; conditions: read-out: DIZ
Helicobacter pylori [12] = assay: Inhibition of Helicobacter pylori invasion to human AGS cells at 20 ug/ml after 6 hrs by gentamicin assay relative to control; format: functional
Helicobacter pylori [13] = assay: Antimicrobial activity against metronidazole and clarithromycin-resistant Helicobacter pylori v1254 at pH 8 by microdilution method; format: functional
Helicobacter pylori [14] = assay: Inhibition of Helicobacter pylori adhesion to human AGS cells at 10 ug/ml after 6 hrs by gentamicin assay relative to control; format: functional
[15] = Antimicrobial activity against Helicobacter pylori 26695 ATCC 700392 at pH 7 by microdilution method; format: functional
Helicobacter pylori [16] = assay: Inhibition of Helicobacter pylori 26695 ATCC 700392 CagA-induced pathogenesis in human AGS cells assessed as reduction of hummingbird phenotype of host cells after 6 hrs; format: functional, cell-based; conditions: ATCC 700392 26695
Helicobacter pylori [17] = assay: Antimicrobial activity against metronidazole and clarithromycin-resistant Helicobacter pylori v633 at pH 5 by microdilution method; format: functional
Helicobacter pylori [18] = assay: Antimicrobial activity against metronidazole and clarithromycin-resistant Helicobacter pylori v633 at pH 8 by microdilution method; format: functional
Helicobacter pylori [19] = assay: Antimicrobial activity against Helicobacter pylori infected in human AGS cells assessed as reduction of tyrosine phosphorylated CagA level translocation at 20 ug/ml after 6 hrs by immunoblot analysis; format: functional
Helicobacter pylori [20] = assay: Inhibition of Helicobacter pylori adhesion to human AGS cells at 5 ug/ml after 6 hrs by gentamicin assay relative to control; format: functional
Helicobacter pylori [21] = assay: Antimicrobial activity against metronidazole and clarithromycin-resistant Helicobacter pylori v1254 at pH 7 by microdilution method; format: functional
Helicobacter pylori [22] = assay: Antimicrobial activity against Helicobacter pylori infected in human AGS cells assessed as inhibition of CagA gene translocation after 6 hrs by immunoblot analysis; format: functional, organism-based
Helicobacter pylori [23] = assay: Inhibition of Helicobacter pylori adhesion to human AGS cells at 20 ug/ml after 6 hrs by gentamicin assay relative to control; format: functional
[24] = Antimicrobial activity against Helicobacter pylori 26695 ATCC 700392 at pH 8 by microdilution method; format: functional
[25] = Antimicrobial activity against Helicobacter pylori 26695 ATCC 700392 at pH 5 by microdilution method; format: functional
AGS [26] = assay: Inhibition of NFkappaB activation expressed in human AGS cells infected with Helicobacter pylori assessed as inhibition of IL-8 production at 20 ug/ml relative to control; format: cell-based
Helicobacter pylori [27] = assay: Inhibition of Helicobacter pylori 26695 ATCC 700392 CagA-induced pathogenesis in human AGS cells assessed as reduction of hummingbird phenotype of host cells at 20 ug/ml after 6 hrs; format: functional; conditions: ATCC 700392 26695, AGS
[28] = Antimicrobial activity against Helicobacter pylori 26695 ATCC 700392 at 50 ug/ml by disk agar diffusion method; format: functional; conditions: read-out: DIZ
[29] = Antimicrobial activity against Helicobacter pylori 26695 ATCC 700392 at 800 ug/ml by disk agar diffusion method; format: functional; conditions: read-out: DIZ

COc1cc(Cn2c(-c3ccccc3F)nc3cc(C)ccc32)cc(OC)c1OC showed an MBC (Helicobacter pylori [1]) of 12.5 µg/mL (≈ 30.8 µM), an inhibition (AGS [2]) of 42% and an MBC (Helicobacter pylori [3]) of 12.5 µg/mL (≈ 30.8 µM). It also gave an inhibition at 5 µg/mL (Helicobacter pylori [4]) of 7%, an inhibition at 20 µg/mL (Helicobacter pylori [5]) of 55% and an inhibition (AGS [6]) of 14%. The inhibition at 10 µg/mL (Helicobacter pylori [7]) was 28%, the inhibition (Helicobacter pylori [8]) was “Dose-dependent effect” and the inhibition (AGS [9]) was “Dose-dependent effect”. For the same compound, the Activity (AGS [10]) was “Non-toxic”, the zone of inhibition at 100 µg/mL [11] was 24 mm and the inhibition at 20 µg/mL (Helicobacter pylori [12]) was 52%. For the same compound, the MBC (Helicobacter pylori [13]) was 12.5 µg/mL (≈ 30.8 µM), the inhibition at 10 µg/mL (Helicobacter pylori [14]) was 31% and the MBC [15] was 25 µg/mL (≈ 61.5 µM). The inhibition (Helicobacter pylori [16]) was “Dose-dependent effect”, the MBC (Helicobacter pylori [17]) was 12.5 µg/mL (≈ 30.8 µM) and the MBC (Helicobacter pylori [18]) was 12.5 µg/mL (≈ 30.8 µM). It also gave an inhibition at 20 µg/mL (Helicobacter pylori [19]) of 55%, an inhibition at 5 µg/mL (Helicobacter pylori [20]) of 6% and an MBC (Helicobacter pylori [21]) of 12.5 µg/mL (≈ 30.8 µM). For the same compound, the inhibition (Helicobacter pylori [22]) was “Dose-dependent effect”, the inhibition at 20 µg/mL (Helicobacter pylori [23]) was 58% and the MBC [24] was 25 µg/mL (≈ 61.5 µM). For the same compound, the MBC [25] was 25 µg/mL (≈ 61.5 µM), the inhibition (AGS [26]) was 85% and the inhibition at 20 µg/mL (Helicobacter pylori [27]) was 98%.
COc1cc(Cn2c(-c3ccccc3C)nc3cc(C)ccc32)cc(OC)c1OC gave a zone of inhibition at 100 µg/mL [11] of 14 mm.
Work on COc1cc(Cn2c(-c3cccc4ccccc34)nc3cc(C)ccc32)cc(OC)c1OC yielded a zone of inhibition at 100 µg/mL [11] of 12 mm.
COc1cc(Cn2c(-c3cc(F)ccc3F)nc3cc(C)ccc32)cc(OC)c1OC showed a zone of inhibition at 100 µg/mL [11] of 11 mm.
For COc1cc(Cn2c(-c3c(F)cccc3F)nc3cc(C)ccc32)cc(OC)c1OC, the Activity (AGS [10]) was “Toxic” and the zone of inhibition at 100 µg/mL [11] was 24 mm.
In the case of c1ccc2[nH]cnc2c1 [BENZIMIDAZOLE], the MBC (Helicobacter pylori [1]) is reported as greater than 800 µg/mL, the inhibition (AGS [2]) is reported as “Active” and the MBC (Helicobacter pylori [3]) is reported as 400 µg/mL (≈ 3390 µM). The inhibition (AGS [9]) was “Active”, the zone of inhibition at 100 µg/mL [11] was 0 mm and the MBC (Helicobacter pylori [13]) was 400 µg/mL (≈ 3390 µM). For the same compound, the MBC [15] was 400 µg/mL (≈ 3390 µM), the MBC (Helicobacter pylori [17]) was greater than 800 µg/mL and the MBC (Helicobacter pylori [18]) was 400 µg/mL (≈ 3390 µM). For the same compound, the MBC (Helicobacter pylori [21]) was 400 µg/mL (≈ 3390 µM), the MBC [24] was greater than 800 µg/mL and the MBC [25] was greater than 800 µg/mL.
Compound COc1cc(Cn2c(-c3ccccc3)nc3cc(F)ccc32)cc(OC)c1OC has a zone of inhibition at 100 µg/mL [11] of 17 mm.
COc1cc(Cn2c(-c3ccc(Cl)c(Cl)c3)nc3cc(C)ccc32)cc(OC)c1OC showed a zone of inhibition at 100 µg/mL [11] of 9 mm.
CC[C@H]1OC(=O)[C@H](C)[C@@H](O[C@H]2C[C@@](C)(OC)[C@@H](O)[C@H](C)O2)[C@H](C)[C@@H](O[C@@H]2O[C@H](C)C[C@H](N(C)C)[C@H]2O)[C@](C)(OC)C[C@@H](C)C(=O)[C@H](C)[C@@H](O)[C@]1(C)O [CLARITHROMYCIN] gave a zone of inhibition at 50 µg/mL [28] of 21 mm.
In the case of COc1cccc(-c2nc3cc(C)ccc3n2Cc2cc(OC)c(OC)c(OC)c2)c1, the zone of inhibition at 100 µg/mL [11] is reported as 0 mm.
With COc1ccc(-c2nc3cc(C)ccc3n2Cc2cc(OC)c(OC)c(OC)c2)cc1 the Activity (AGS [10]) was “Toxic” and the zone of inhibition at 100 µg/mL [11] was 22 mm.
Compound COc1cc(Cn2c(-c3ccc(Cl)cc3Cl)nc3cc(C)ccc32)cc(OC)c1OC has a zone of inhibition at 100 µg/mL [11] of 11 mm.
Work on COc1ccc2nc(-c3ccccc3)n(Cc3cc(OC)c(OC)c(OC)c3)c2c1 yielded a zone of inhibition at 100 µg/mL [11] of 0 mm.
COc1cc(Cn2c(-c3cccc(Cl)c3Cl)nc3cc(C)ccc32)cc(OC)c1OC showed a zone of inhibition at 100 µg/mL [11] of 13 mm.
Compound COc1cc(Cn2c(-c3ccc4ccccc4c3)nc3cc(C)ccc32)cc(OC)c1OC has a zone of inhibition at 100 µg/mL [11] of 0 mm.
With Cc1ncc([N+](=O)[O-])n1CCO [METRONIDAZOLE] the MBC (Helicobacter pylori [1]) was 100 µg/mL (≈ 584 µM), the zone of inhibition at 800 µg/mL [29] was 7 mm and the MBC (Helicobacter pylori [3]) was 50 µg/mL (≈ 292 µM). The inhibition at 20 µg/mL (Helicobacter pylori [12]) was 20%, the MBC (Helicobacter pylori [13]) was 100 µg/mL (≈ 584 µM) and the MBC [15] was 12.5 µg/mL (≈ 73 µM). The MBC (Helicobacter pylori [17]) was 50 µg/mL (≈ 292 µM), the MBC (Helicobacter pylori [18]) was 50 µg/mL (≈ 292 µM) and the MBC (Helicobacter pylori [21]) was 100 µg/mL (≈ 584 µM). It also gave an inhibition at 20 µg/mL (Helicobacter pylori [23]) of 20%, an MBC [24] of 12.5 µg/mL (≈ 73 µM) and an MBC [25] of 6.25 µg/mL (≈ 36.5 µM).
For CC1(C)S[C@@H]2[C@H](NC(=O)[C@H](N)c3ccc(O)cc3)C(=O)N2[C@H]1C(=O)O [AMOXICILLIN], the zone of inhibition at 50 µg/mL [28] was 14 mm.
In the case of COc1cc(Cn2c(-c3cccc(F)c3)nc3cc(C)ccc32)cc(OC)c1OC, the zone of inhibition at 100 µg/mL [11] is reported as 0 mm.
Compound COc1ccc(-c2nc3ccc(Cl)cc3n2Cc2cc(OC)c(OC)c(OC)c2)cc1 has a zone of inhibition at 100 µg/mL [11] of 12 mm.
COc1cc(Cn2c(-c3ccccc3)nc3ccc(Cl)cc32)cc(OC)c1OC showed a zone of inhibition at 100 µg/mL [11] of 14 mm.
With COc1ccc(-c2nc3ccc(C)cc3n2Cc2cc(OC)c(OC)c(OC)c2)cc1 the zone of inhibition at 100 µg/mL [11] was 15 mm.
For COc1cc(Cn2c(-c3ccccc3)nc3cc(C)c(C)cc32)cc(OC)c1OC, the zone of inhibition at 100 µg/mL [11] was 16 mm.
For COc1cc(Cn2c(-c3cccc(C)c3)nc3cc(C)ccc32)cc(OC)c1OC, the zone of inhibition at 100 µg/mL [11] was 19 mm.
In the case of COc1ccccc1-c1nc2cc(C)ccc2n1Cc1cc(OC)c(OC)c(OC)c1, the Activity (AGS [10]) is reported as “Toxic” and the zone of inhibition at 100 µg/mL [11] is reported as 21 mm.
In the case of COc1cc(Cn2c(-c3ccccc3Cl)nc3cc(C)ccc32)cc(OC)c1OC, the Activity (AGS [10]) is reported as “Toxic” and the zone of inhibition at 100 µg/mL [11] is reported as 21 mm.
Compound COc1cc(Cn2c(-c3ccc(F)cc3)nc3cc(C)ccc32)cc(OC)c1OC has a zone of inhibition at 100 µg/mL [11] of 17 mm.
With COc1cc(Cn2c(-c3ccccc3)nc3cc(C)ccc32)cc(OC)c1OC the Activity (AGS [10]) was “Toxic” and the zone of inhibition at 100 µg/mL [11] was 22 mm.
Work on COc1cc(Cn2c(-c3ccccc3)nc3cc(Cl)ccc32)cc(OC)c1OC yielded a zone of inhibition at 100 µg/mL [11] of 11 mm.
COc1cc(Cn2c(-c3ccc(C#N)cc3)nc3cc(C)ccc32)cc(OC)c1OC gave a zone of inhibition at 100 µg/mL [11] of 12 mm.
COc1ccc(-c2nc3cc(Cl)ccc3n2Cc2cc(OC)c(OC)c(OC)c2)cc1 gave a zone of inhibition at 100 µg/mL [11] of 11 mm.
For COc1cc(Cn2c(-c3ccccc3)nc3ccc(C)cc32)cc(OC)c1OC, the Activity (AGS [10]) was “Toxic” and the zone of inhibition at 100 µg/mL [11] was 21 mm.
